Source: PubChem BioAssay (NCI)
Several values for one entry are separate records, joined by “and”; a condition that tells them apart may be missing. Equal values may be shown once.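 How tested: cells in 96-well plates exposed to compound for 48 hours at five concentrations. GI50: concentration for 50% inhibition of growth. Definition used: TGI = concentration required for complete inhibition of growth.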

What was measured:
Experiment in all cases: growth of human tumour cells (NCI), 48 h
[1] = test system: 786-0 renal
[2] = test system: HCT-116 colon
[3] = test system: IGROV1 ovarian
[4] = test system: K-562 leukemia
[5] = test system: M14 melanoma
[6] = test system: MCF7 breast
[7] = test system: PC-3 prostate
[8] = test system: SF-539 CNS
[9] = test system: SK-MEL-2 melanoma
[10] = test system: UO-31 renal

Compound | GI50 [1] | TGI [1] | GI50 [2] | TGI [2] | GI50 [3] | TGI [3] | GI50 [4] | TGI [4] | GI50 [5] | TGI [5] | GI50 [6] | TGI [6] | GI50 [7] | TGI [7] | GI50 [8] | TGI [8] | GI50 [9] | TGI [9] | GI50 [10] | TGI [10]
COc1cc2nc3cc([N+](=O)[O-])ccc3c(NCCCNCC(C)(C)O)c2cc1OC | 0.277 µM | 1.22 µM | 0.299 µM | 1.04 µM | 0.35 µM | 1.3 µM | 0.299 µM | 1.68 µM | 0.352 µM | 1.5 µM | 0.208 µM | 1.16 µM | 0.322 µM | 1.11 µM | 0.505 µM | 2.58 µM | 0.234 µM | 0.518 µM | 1.46 µM | 5.14 µM
COc1cccc2[nH]c(-c3ccccn3)nc12 |  | > 100 µM |  | > 100 µM |  | > 100 µM |  | > 100 µM |  | > 100 µM |  | > 100 µM |  | > 100 µM |  | > 100 µM |  | > 100 µM |  | > 100 µM
COc1ccc(C(=O)c2cc3c(N)c(C(=O)Nc4cccc(Cl)c4C)sc3nc2C)cc1 | 0.187 µM | > 25 µM | 0.0989 µM | > 25 µM | 0.145 µM | > 25 µM | 0.0901 µM | > 25 µM | 0.0715 µM | > 25 µM | 0.0932 µM | > 25 µM | 0.122 µM | > 25 µM | 0.0679 µM | 0.169 µM | 0.215 µM | > 25 µM | 0.634 µM | > 25 µM
Nc1c(C(=O)Nc2ccccc2F)sc2nc3c(cc12)C(=O)CCC3 | 13.6 µM | > 100 µM | 0.646 µM | > 100 µM | 2.92 µM | > 100 µM | 0.553 µM | > 100 µM | 0.645 µM | > 100 µM | 0.499 µM | > 100 µM | 0.959 µM | > 100 µM | 0.817 µM | > 22.2 µM | 0.683 µM | > 100 µM | > 100 µM | > 100 µM
Cc1c(NC(=O)OC[C@@H]2COCCN2)cn2ncnc(Nc3ccc4c(cnn4Cc4cccc(F)c4)c3)c12 | 8.46 µM and 6.1 µM | > 10 µM and 24.1 µM | 7.82 µM and 5.22 µM | > 10 µM and 18.7 µM | 0.855 µM and 2.16 µM | > 10 µM and 19.9 µM | 3.91 µM and 4.53 µM | > 10 µM and 17.1 µM | 9.45 µM and 4.41 µM | > 10 µM and 16.3 µM | > 10 µM and 12.1 µM | > 10 µM and 33.6 µM | > 10 µM and 10.2 µM | > 10 µM and 31.8 µM | > 10 µM and 11.3 µM | > 10 µM and 25.2 µM | > 10 µM and 12.9 µM | > 10 µM and 29.4 µM | 1.25 µM and 1.55 µM | > 10 µM and 16.5 µM
O=C(c1ccccc1)c1nc2ccc(C(F)(F)F)cc2[n+]([O-])c1C(F)(F)F | 48 µM | > 100 µM | 31.3 µM | > 100 µM | 16.4 µM | 52.2 µM | 18.2 µM | > 100 µM | 34.5 µM | > 100 µM | 36 µM | > 100 µM | 24.5 µM | > 100 µM | 51.1 µM | > 100 µM | 27.5 µM | > 100 µM | 23.8 µM | > 100 µM
O=C(CCCCCCSc1nc(-c2ccc(Cl)cc2)cc(-c2ccc(Cl)cc2)n1)NO | 1.59 µM | 6.32 µM | 1.45 µM | 6.05 µM | 1.7 µM | 12.8 µM | 1.65 µM | > 50 µM | 1.26 µM | 3.87 µM | 1.44 µM | > 50 µM | 1.54 µM | 16.3 µM | 1.53 µM | 5.57 µM | 4.02 µM | 18.4 µM | 0.735 µM | 2.42 µM
O=C(Oc1ccccc1Cl)c1ccccc1Nc1ccnc(C(F)(F)F)c1 | 0.859 µM | 2.39 µM | 1.78 µM | 3.65 µM | 16.3 µM | > 100 µM | 0.0768 µM | 3.39 µM | 0.252 µM | 0.913 µM | 1.01 µM | > 30.8 µM | 0.306 µM | 3.55 µM | 0.383 µM | 1.88 µM | 26.4 µM | > 100 µM | 9.63 µM | > 57.9 µM
O=C1c2c(O)cc(O)cc2OC(c2ccc(O)cc2O)C1O (stereo not given) | > 100 µM | > 100 µM | > 100 µM | > 100 µM | > 100 µM | > 100 µM | > 100 µM | > 100 µM |  | > 100 µM |  | > 100 µM |  | > 100 µM | > 100 µM | > 100 µM | > 100 µM | > 100 µM | > 100 µM | > 100 µM
O=C(NCCCCCCCCNC(=O)c1cccc2ccccc12)c1cccc2ccccc12 |  | 23.3 µM |  | > 83.4 µM |  | > 76.1 µM |  | > 100 µM |  | > 87 µM |  | > 100 µM |  | > 100 µM |  | 34 µM |  | > 100 µM |  | 27.4 µM
CCCCn1sc(=O)n(Cc2ccc(CNC(=O)OCc3ccc4c(Br)cc(Br)c(O)c4n3)cc2)c1=O | 1.58 µM | > 100 µM | 0.344 µM | > 100 µM | 0.531 µM | > 100 µM | 0.434 µM | > 100 µM | 0.37 µM | > 100 µM | 0.369 µM | > 100 µM | 0.651 µM | > 100 µM | 0.23 µM | 0.633 µM | 1.28 µM | > 100 µM | 1.05 µM | > 100 µM
CCCSC1=NC2C(N(CC)C(=O)N2CC)N1/N=C/C=C/c1ccccc1[N+](=O)[O-] (stereo not given) | 4.61 µM | > 100 µM | 3.2 µM | > 100 µM | 4.06 µM | > 100 µM | 2.31 µM | > 100 µM | 2.83 µM | 20.8 µM | 2.81 µM | > 100 µM | 3.33 µM | > 100 µM | 2.13 µM | 5.8 µM | 7.26 µM | > 100 µM | 3.86 µM | > 100 µM
Cc1cc(C)nc(SC2=C(Nc3cccc(Cl)c3C)C(=O)N(Cc3ccccc3)C2=O)n1 | > 160 µM | > 160 µM | > 160 µM | > 160 µM | > 160 µM | > 160 µM | > 160 µM | > 160 µM | > 160 µM | > 160 µM | > 160 µM | > 160 µM | > 160 µM | > 160 µM | > 160 µM | > 160 µM | > 160 µM | > 160 µM | > 160 µM | > 160 µM
Cn1c(=S)c2[nH]c(SCCN3CCCC3)nc2n(C)c1=O |  | > 100 µM |  | > 100 µM |  | > 100 µM |  | > 100 µM |  | > 100 µM |  | > 100 µM |  | > 100 µM |  | > 100 µM |  | > 100 µM |  | > 100 µM
Cc1ccc(S(=O)(=O)Cc2nc(-c3ccc(C(=O)NCc4cccnc4)cc3)oc2C)cc1 | 20 µM | > 100 µM | < 0.01 µM | > 100 µM | 0.189 µM | > 100 µM | < 0.01 µM | > 100 µM | 0.0699 µM | > 100 µM | 3.93 µM | > 100 µM | 0.224 µM | > 100 µM | < 0.01 µM | > 35.5 µM | 5.45 µM | > 86.3 µM | 23.7 µM | > 100 µM
C#CCOc1cccc(Nc2ncnc3ccc(NC(=O)CCl)cc23)c1 | 0.208 µM | 2.84 µM | 0.0493 µM | 5.25 µM | 0.164 µM | 2.77 µM | 0.117 µM | > 100 µM | 1.07 µM | 18.8 µM | 0.428 µM | 14.4 µM | 0.581 µM | 12.4 µM | 2.83 µM | 7.23 µM | 4.07 µM | 24.1 µM | 0.312 µM | 7.11 µM
O=C1/C(=C/c2ccccc2)CN(C(=O)OCc2ccccc2)C/C1=C\c1ccccc1 |  | 18.5 µM | 0.484 µM | 1.63 µM and 2.63 µM |  | 23.8 µM | 1.63 µM | 15.4 µM | 5.89 µM | 16.7 µM |  | 37.2 µM |  | 57.7 µM |  | 30.9 µM |  | 44.8 µM |  | 24 µM
COc1ccc(C(=O)COc2cccc(/C=C3\CSc4ccc(C)cc4C3=O)c2)cc1 | 38.5 µM | > 100 µM | 1.91 µM | 5.71 µM | 12.2 µM | 43.8 µM | 2.17 µM | 6.9 µM | 23.6 µM | > 100 µM | 2.64 µM | 31.3 µM | 5.86 µM | > 100 µM | > 100 µM | > 100 µM | 15.9 µM | > 100 µM | 19.9 µM | > 100 µM
O=[N+]([O-])c1ccc2ncccc2c1Cl | 3.28 µM | 20.4 µM | 1.57 µM | 7.23 µM | 3.89 µM | 13.8 µM | 0.382 µM | 27.1 µM | 3.01 µM | 11.5 µM | 3.55 µM | 12.9 µM | 3.75 µM | 20.2 µM | 2.76 µM | 34.2 µM | 9.21 µM | 30.5 µM | 5.02 µM | > 100 µM
CSc1ccc(/C=C/c2ccnc3ccccc23)cc1 |  | 27.9 µM |  | 22.3 µM |  | 39.4 µM |  | 30.9 µM |  | 22.1 µM |  | 28.6 µM |  | 19.2 µM |  | 32.7 µM |  | 30.1 µM |  | 26.5 µM
